Target: Nav 1.7 (Homo sapiens (Human), UniProt Q15858)
Experiment: in-vitro Nav 1.7 PX data
Format: cell-based

Chain of Nav 1.7 (Q15858 whole entry): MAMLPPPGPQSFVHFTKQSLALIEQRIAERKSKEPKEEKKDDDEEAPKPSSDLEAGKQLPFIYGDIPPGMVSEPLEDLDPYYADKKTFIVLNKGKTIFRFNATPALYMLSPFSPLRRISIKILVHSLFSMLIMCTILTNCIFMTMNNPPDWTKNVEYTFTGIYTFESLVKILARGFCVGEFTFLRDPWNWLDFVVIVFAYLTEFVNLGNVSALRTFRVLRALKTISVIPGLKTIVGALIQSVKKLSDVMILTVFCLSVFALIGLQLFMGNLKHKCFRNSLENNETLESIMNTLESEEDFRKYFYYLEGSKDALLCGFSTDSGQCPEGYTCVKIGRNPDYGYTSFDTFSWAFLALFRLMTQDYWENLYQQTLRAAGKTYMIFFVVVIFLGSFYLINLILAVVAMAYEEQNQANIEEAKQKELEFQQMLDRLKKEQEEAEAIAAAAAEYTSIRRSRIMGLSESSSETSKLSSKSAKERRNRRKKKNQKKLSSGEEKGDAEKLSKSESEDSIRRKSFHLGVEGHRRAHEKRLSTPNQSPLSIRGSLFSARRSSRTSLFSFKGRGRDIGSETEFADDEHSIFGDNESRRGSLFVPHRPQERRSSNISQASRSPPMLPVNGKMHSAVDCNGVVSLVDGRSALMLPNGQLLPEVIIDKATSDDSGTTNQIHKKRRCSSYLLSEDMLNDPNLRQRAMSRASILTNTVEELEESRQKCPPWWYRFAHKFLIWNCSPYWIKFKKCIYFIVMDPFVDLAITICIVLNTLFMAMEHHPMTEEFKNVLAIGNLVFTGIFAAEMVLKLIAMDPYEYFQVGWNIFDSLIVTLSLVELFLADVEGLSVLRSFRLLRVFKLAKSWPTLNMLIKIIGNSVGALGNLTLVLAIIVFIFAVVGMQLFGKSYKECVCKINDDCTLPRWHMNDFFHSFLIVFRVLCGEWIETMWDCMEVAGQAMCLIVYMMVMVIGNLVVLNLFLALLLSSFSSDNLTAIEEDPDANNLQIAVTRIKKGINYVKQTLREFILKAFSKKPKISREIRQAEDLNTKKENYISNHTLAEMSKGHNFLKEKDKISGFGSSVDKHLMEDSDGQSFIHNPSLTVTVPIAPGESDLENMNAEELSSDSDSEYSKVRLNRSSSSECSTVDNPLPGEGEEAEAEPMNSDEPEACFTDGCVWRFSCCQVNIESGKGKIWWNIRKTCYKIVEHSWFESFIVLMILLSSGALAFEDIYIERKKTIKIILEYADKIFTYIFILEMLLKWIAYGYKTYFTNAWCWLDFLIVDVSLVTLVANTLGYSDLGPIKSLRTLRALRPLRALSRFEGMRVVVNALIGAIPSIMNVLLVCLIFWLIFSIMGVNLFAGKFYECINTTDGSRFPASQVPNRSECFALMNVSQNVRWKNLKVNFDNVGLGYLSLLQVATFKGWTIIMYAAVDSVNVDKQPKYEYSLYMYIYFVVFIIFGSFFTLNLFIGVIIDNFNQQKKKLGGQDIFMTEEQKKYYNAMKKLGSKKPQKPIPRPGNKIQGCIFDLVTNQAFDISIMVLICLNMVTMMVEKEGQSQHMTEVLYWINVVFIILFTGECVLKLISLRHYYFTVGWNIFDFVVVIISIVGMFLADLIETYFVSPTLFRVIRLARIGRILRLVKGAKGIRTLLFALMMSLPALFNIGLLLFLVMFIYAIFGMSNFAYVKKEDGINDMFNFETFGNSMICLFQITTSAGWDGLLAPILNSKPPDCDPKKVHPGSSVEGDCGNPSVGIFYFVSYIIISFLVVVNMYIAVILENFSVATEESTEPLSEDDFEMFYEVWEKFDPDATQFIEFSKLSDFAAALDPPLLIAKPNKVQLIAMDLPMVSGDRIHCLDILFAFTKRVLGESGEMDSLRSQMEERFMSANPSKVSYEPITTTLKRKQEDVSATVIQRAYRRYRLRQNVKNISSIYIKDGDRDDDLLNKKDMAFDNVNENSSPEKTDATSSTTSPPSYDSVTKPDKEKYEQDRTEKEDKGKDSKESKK

Structure (SMILES)	IC50 (in-vitro PX data) [nM]	further results
COc1cc(-c2cc(F)cnc2OC)c(F)cc1-c1nccc2cc(S(=O)(=O)Nc3ccon3)ccc12 [Example 93, 1-(5-fluoro-4-(5-fluoro-2-methoxy-3-pyridinyl)-2-methoxyphenyl)-N-3-isoxazolyl-6-isoquinolinesulfonamide]	–	IC50 (PatchXpress (PX), in vitro): 67.7 nM
COc1cc(-c2ccc(F)c(C)c2)c(Cl)cc1-c1nccc2cc(S(=O)(=O)Nc3ccon3)ccc12 [Example 94, 1-(2-chloro-4′-fluoro-5-methoxy-3′-methyl-4-biphenylyl)-N-3-isoxazolyl-6-isoquinolinesulfonamide]	–	IC50 (PatchXpress (PX), in vitro): 50.6 nM
COc1cc(-c2ccc(Cl)c(F)c2)c(F)cc1-c1nccc2cc(S(=O)(=O)Nc3ccon3)ccc12 [Example 95, 1-(4′-chloro-2,3′-difluoro-5-methoxy-4-biphenylyl)-N-3-isoxazolyl-6-isoquinolinesulfonamide]	–	IC50 (PatchXpress (PX), in vitro): 69 nM
COc1cc(-c2ccc(C)c(Cl)c2)c(Cl)cc1-c1nccc2cc(S(=O)(=O)Nc3ccon3)ccc12 [Example 96, 1-(2,3′-dichloro-5-methoxy-4′-methyl-4-biphenylyl)-N-3-isoxazolyl-6-isoquinolinesulfonamide]	–	IC50 (PatchXpress (PX), in vitro): 73.8 nM
COc1cc(-c2cccc(Cl)c2)c(F)cc1-c1nccc2cc(S(=O)(=O)Nc3ncccn3)ccc12 [Example 97, 1-(3′-chloro-2-fluoro-5-methoxy-4-biphenylyl)-N-2-pyrimidinyl-6-isoquinolinesulfonamide]	–	IC50 (PatchXpress (PX), in vitro): 111 nM
COc1cc(-c2cc(F)cc(F)c2)c(F)cc1-c1nccc2cc(S(=O)(=O)Nc3ccon3)ccc12 [Example 98, N-3-isoxazolyl-1-(2,3′,5′-trifluoro-5-methoxy-4-biphenylyl)-6-isoquinolinesulfonamide]	–	IC50 (PatchXpress (PX), in vitro): 34.5 nM
COc1cc(-c2cc(F)cnc2OC)c(F)cc1-c1nccc2cc(S(=O)(=O)Nc3ccsn3)ccc12 [Example 99, 1-(5-fluoro-4-(5-fluoro-2-methoxy-3-pyridinyl)-2-methoxyphenyl)-N-3-isothiazolyl-6-isoquinolinesulfonamide]	–	IC50 (PatchXpress (PX), in vitro): 66.3 nM
COc1cc(-c2ccc(Cl)c(F)c2)c(Cl)cc1-c1nccc2cc(S(=O)(=O)Nc3ccon3)ccc12 [Example 101, 1-(2,4′-dichloro-3′-fluoro-5-methoxy-4-biphenylyl)-N-3-isoxazolyl-6-isoquinolinesulfonamide]	73.9	–
COc1cc(-c2cccc(C(F)(F)F)c2)c(F)cc1-c1ncnc2cc(S(=O)(=O)Nc3ccon3)ccc12 [Example 102, 4-(2-fluoro-5-methoxy-3′-(trifluoromethyl)-4-biphenylyl)-N-3-isoxazolyl-7-quinazolinesulfonamide]	22.9	–
COc1cc(-c2ccc(Cl)c(C)c2)c(F)cc1-c1ncnc2cc(S(=O)(=O)Nc3ccon3)ccc12 [Example 103, 4-(4′-chloro-2-fluoro-5-methoxy-3′-methyl-4-biphenylyl)-N-3-isoxazolyl-7-quinazolinesulfonamide]	24	–
COc1cc(-c2cccc(Cl)c2)c(F)cc1-c1ncnc2cc(S(=O)(=O)Nc3ccon3)ccc12 [Example 104, 4-(3′-chloro-2-fluoro-5-methoxy-4-biphenylyl)-N-3-isoxazolyl-7-quinazolinesulfonamide]	8.4	–
COc1cc(-c2cc(F)cnc2OC)c(Cl)cc1-c1nccc2cc(S(=O)(=O)Nc3ccon3)ccc12 [Example 105, 1-(5-chloro-4-(5-fluoro-2-methoxy-3-pyridinyl)-2-methoxyphenyl)-N-3-isoxazolyl-6-isoquinolinesulfonamide]	29.3	–
COc1cc(-c2cccc(F)c2)c(C#N)cc1-c1nccc2cc(S(=O)(=O)Nc3ncccn3)ccc12 [Example 109, 1-(2-cyano-3′-fluoro-5-methoxy-4-biphenylyl)-N-2-pyrimidinyl-6-isoquinolinesulfonamide]	241	–
COc1cc(Br)c(Cl)cc1-c1nccc2cc(S(=O)(=O)Nc3ccon3)ccc12 [Example 117, 1-(4-bromo-5-chloro-2-methoxyphenyl)-N-3-isoxazolyl-6-isoquinolinesulfonamide]	108	–
COc1cc(-c2ccc(Cl)c(C)c2)c(Cl)cc1-c1nccc2cc(S(=O)(=O)Nc3ccon3)ccc12 [Example 119, 1-(2,4′-dichloro-5-methoxy-3′-methyl-4-biphenylyl)-N-3-isoxazolyl-6-isoquinolinesulfonamide]	73.6	–
COc1cc(-c2cc(F)cc(F)c2)ccc1-c1nccc2cc(S(=O)(=O)Nc3cc(C)on3)ccc12 [Example 126, 1-(3′,5′-difluoro-3-methoxy-4-biphenylyl)-N-(5-methyl-3-isoxazolyl)-6-isoquinolinesulfonamide]	4190	–
COc1cc(-c2cc(F)cc(F)c2)ccc1-c1nccc2cc(S(=O)(=O)Nc3ccno3)ccc12 [Example 128, 1-(3′,5′-difluoro-3-methoxy-4-biphenylyl)-N-5-isoxazolyl-6-isoquinolinesulfonamide]	3510	–
COc1cc(-c2cc(F)cc(F)c2)ccc1-c1nccc2cc(S(=O)(=O)Nc3cncc(C)n3)ccc12 [Example 131, 1-(3′,5′-difluoro-3-methoxy-4-biphenylyl)-N-(6-methyl-2-pyrazinyl)-6-isoquinolinesulfonamide]	1630	–
COc1cc(-c2cc(F)cc(F)c2)ccc1-c1nccc2cc(S(=O)(=O)Nc3ncc(C#N)s3)ccc12 [Example 132, N-(5-cyano-1,3-thiazol-2-yl)-1-(3′,5′-difluoro-3-methoxy-4-biphenylyl)-6-isoquinolinesulfonamide]	695	–
COc1cc(-c2cc(F)cc(F)c2)ccc1-c1nccc2cc(S(=O)(=O)Nc3nnc(C)s3)ccc12 [Example 133, 1-(3′,5′-difluoro-3-methoxy-4-biphenylyl)-N-(5-methyl-1,3,4-thiadiazol-2-yl)-6-isoquinolinesulfonamide]	1560	–
COc1nsc(NS(=O)(=O)c2ccc3c(-c4ccc(-c5cc(F)cc(F)c5)cc4OC)nccc3c2)n1 [Example 134, 1-(3′,5′-difluoro-3-methoxy-4-biphenylyl)-N-(3-methoxy-1,2,4-thiadiazol-5-yl)-6-isoquinolinesulfonamide]	1280	–
COc1cc(-c2cc(F)cc(F)c2)ccc1-c1nccc2cc(S(=O)(=O)NC(C)=O)ccc12 [Example 136, N-((1-(3′,5′-difluoro-3-methoxy-4-biphenylyl)-6-isoquinolinyl)sulfonyl)acetamide]	11200	–
COc1cc(C#N)c(-c2cc(F)cc(F)c2)cc1-c1nccc2cc(S(=O)(=O)Nc3ccon3)ccc12 [Example 139, 1-(6-cyano-3′,5′-difluoro-4-methoxy-3-biphenylyl)-N-3-isoxazolyl-6-isoquinolinesulfonamide]	–	IC50 (in-vitro Nav 1.7 PX data): 15300 nM
COc1cc(-c2cc(F)cc(F)c2)ccc1-c1nccc2cc(S(=O)(=O)Nc3cnccn3)ccc12 [Example 140, 1-(3′,5′-difluoro-3-methoxy-4-biphenylyl)-N-2-pyrazinyl-6-isoquinolinesulfonamide]	–	IC50 (in-vitro Nav 1.7 PX data): 652 nM
COc1cc(-c2cc(F)cc(F)c2)ccc1-c1nccc2cc(S(=O)(=O)Nc3ccccn3)ccc12 [Example 141, 1-(3′,5′-difluoro-3-methoxy-4-biphenylyl)-N-2-pyridinyl-6-isoquinolinesulfonamide]	–	IC50 (in-vitro Nav 1.7 PX data): 1010 nM
COc1cc(-c2cc(F)cc(F)c2)ccc1-c1nccc2cc(S(=O)(=O)Nc3ncc(C(F)(F)F)o3)ccc12 [Example 143, 1-(3′,5′-difluoro-3-methoxy-4-biphenylyl)-N-(5-(trifluoromethyl)-1,3-oxazol-2-yl)-6-isoquinolinesulfonamide]	–	IC50 (in-vitro Nav 1.7 PX data): 3220 nM
